logP data for 25 molecules are collected here from the OPERA property sets (Mansouri et al. 2018).

Usually logP stands for a log measure of how a compound divides between an organic and an aqueous phase. Read a low logP as lower lipophilicity.

`O=C(Cc1ccccc1)NCCNCC(O)COCC=Cc1ccccc1` (stereo not given) displayed a logP of 1.76.
As to `CC(C)C(=O)NCCNCC(O)COCCOc1ccccc1` (stereo not given), the logP is 0.48.
Molecule `CC(C)(C)NCC(O)COc1ccccc1` (stereo not given) had a log partition coefficient (logP) of 1.5.
In the case of `CC(C)NCC(O)COCC=Cc1ccccc1` (stereo not given) it was 2.15; in that of `CC(C)(C)NCC(O)COCCc1ccccc1` (stereo not given), 2.52.
Under `CC(C)C(=O)NCCNCC(O)COCCc1ccccc1` (stereo not given) stands 0.95; under `CC(C)C(=O)NCCNCC(O)COCc1ccccc1` (stereo not given), 0.63; under `CC(C)NCC(O)COCc1ccccc1` (stereo not given), 1.62.
In the case of `O=C(Cc1ccccc1)NCCNCC(O)COCCOc1ccccc1` (stereo not given) it was 0.75; in that of `O=C(Cc1ccccc1)NCCNCC(O)COCCCc1ccccc1` (stereo not given), 1.62; in that of `CC(C)(C)NCC(O)COCc1ccccc1` (stereo not given), 1.7.
Consider `CC(C)NCC(O)COCCOc1ccccc1` (stereo not given), for which the logP is 1.63.
In the case of `CC(C)C(=O)NCCNCC(O)COCCCc1ccccc1` (stereo not given) it was 1.25.
In the case of `O=C(Cc1ccccc1)NCCNCC(O)COC1CCCc2ccccc21` (stereo not given), the logP stood at 1.68.
In the case of `O=C(Cc1ccccc1)NCCNCC(O)COCCc1ccccc1` (stereo not given) it was 1.24; in that of `CC(C)C(=O)NCCNCC(O)COc1ccccc1` (stereo not given), 1.14; in that of `CC(C)C(=O)NCCNCC(O)COCC=Cc1ccccc1` (stereo not given), 0.51.
Under `O=C(Cc1ccccc1)NCCNCC(O)OCc1ccccc1` (stereo not given) stands 1.05; under `CC(C)C(=O)NCCNCC(O)COC1CCCc2ccccc21` (stereo not given), 1.99.
For the molecule `CC(C)(C)NCC(O)COC1CCCc2ccccc21` (stereo not given), the logP came to 3.55.
Consider `CC(C)NCC(O)COCCCC(C)c1ccccc1` (stereo not given), for which the logP stood at 2.95.
Consider `CC(C)NCC(O)COCCc1ccccc1` (stereo not given), for which the logP turned out to be 1.76.
In the case of `CC(C)(C)NCC(O)COCC=Cc1ccccc1` (stereo not given) it was 2.29; in that of `O=C(Cc1ccccc1)NCCNCC(O)COc1ccccc1` (stereo not given), 0.63.
In the case of `CC(C)(C)NCC(O)COCCOc1ccccc1` (stereo not given) it was 2.35.
